Experimental data as given in article PMC7841309, “Involvement of the Mitochondrial Protein Tyrosine Phosphatase PTPM1 in the Promotion of Conidiation, Development, and Pathogenicity in Colletotrichum graminicola” (Frontiers in Microbiology, 2021).

Molecular target: T1, CgPTPM1 (Colletotrichum graminicola, UniProt E3QMN0)
T1 construct: gene GLRG_07262; full-length ORF (1869 bp cDNA, 622 residues) in pET28a, His-tag, E. coli BL21, Ni-NTA, about 74 kDa
Test: colorimetric phosphatase assay, […] nm
Assay type: biochemical
Conditions: 0.1 M Tris, 0.25 M NaCl, 5 mM EDTA, 10 mM DTT, pH 8.2, 37 C, 30 min

T1 sequence (E3QMN0 entry or part of it): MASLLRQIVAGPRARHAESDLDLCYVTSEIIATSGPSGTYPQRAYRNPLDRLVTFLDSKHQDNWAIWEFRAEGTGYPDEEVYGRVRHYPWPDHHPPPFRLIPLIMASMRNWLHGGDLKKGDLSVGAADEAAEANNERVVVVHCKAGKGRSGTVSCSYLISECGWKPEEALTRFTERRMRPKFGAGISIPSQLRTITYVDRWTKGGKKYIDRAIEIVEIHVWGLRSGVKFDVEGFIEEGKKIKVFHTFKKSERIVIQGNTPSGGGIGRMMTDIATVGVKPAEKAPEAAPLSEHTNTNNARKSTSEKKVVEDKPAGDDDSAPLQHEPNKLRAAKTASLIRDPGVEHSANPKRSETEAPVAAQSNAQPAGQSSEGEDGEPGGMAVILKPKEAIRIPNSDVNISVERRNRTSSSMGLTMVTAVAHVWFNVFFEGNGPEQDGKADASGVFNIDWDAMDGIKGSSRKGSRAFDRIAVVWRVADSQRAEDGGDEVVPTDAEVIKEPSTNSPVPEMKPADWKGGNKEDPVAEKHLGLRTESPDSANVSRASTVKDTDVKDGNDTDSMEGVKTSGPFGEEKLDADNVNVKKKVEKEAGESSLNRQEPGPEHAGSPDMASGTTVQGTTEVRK

O=[N+]([O-])c1ccc(OP(=O)(O)O)cc1 [pNPP, p-nitrophenyl phosphate]
colorimetric phosphatase assay, 405 nm: Using pNPP as a substrate, the protein phosphatase activity was detected using the colorimetric method
